PubChem BioAssay (NCI)
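1) Cells in 96-well plates. 2) Compound, 48 h, 5 concentrations. 3) Linear interpolation between surrounding doses. 4) Unreached endpoint = highest concentration. GI50 marks 50% less growth. The concentration for full growth arrest is given as TGI.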

How the values were obtained:
Assay in all cases: NCI anticancer screen, dose series, 48 h
[1] = test system: PC-3 prostate
[2] = test system: 786-0 renal
[3] = test system: SF-268 CNS
[4] = test system: MDA-MB-435
[5] = test system: RPMI-8226 leukemia
[6] = test system: HS 578T breast
[7] = test system: NCI-H522 lung
[8] = test system: MDA-N
[9] = test system: TK-10 renal
[10] = test system: KM20L2 colon
[11] = test system: DMS 114 small cell lung
[12] = test system: DMS 273 small cell lung
[13] = test system: HOP-18 NSCLC

Row | Compound | TGI [1] [µM] | TGI [2] [µM] | TGI [3] [µM] | TGI [4] [µM] | TGI [5] [µM] | TGI [6] [µM] | TGI [7] [µM] | TGI [8] [µM] | TGI [9] [µM] | GI50 [1] [µM] | GI50 [3] [µM] | GI50 [4] [µM] | GI50 [6] [µM] | GI50 [7] [µM] | GI50 [9] [µM] | GI50 [5] [µM] | TGI [10] [µM] | TGI [11] [µM] | TGI [12] [µM] | TGI [13] [µM]
1 | CN1CC[C@@]2(c3cccc(O)c3)CC(=O)/C(=C/c3ccccc3)[C@H]1C2 | 14.4 | 25 | 19.7 | 13.9 | 7.04 | 9.81 | 20 | 16.4 | 29.2 | – | – | – | – | – | – | – | – | – | – | –
2 | N=c1c2c(C(N)=O)cn(C3OC(CO)C(O)C3O)c2ncn1O (configuration not stated) | 1.14 | 1.08 | – | 0.74 | – | 7.91 | > 20.4 | – | 0.426 | – | – | – | – | – | – | – | – | – | – | –
3 | COc1ccc(/C=C2\C(=O)N(C3OC(COC(C)=O)C(OC(C)=O)C(OC(C)=O)C3OC(C)=O)c3ccccc3N=C2N)cc1 (configuration not stated) | 83.3 | 37.5 | > 100 | 35.7 | 37.5 | > 100 | – | 26 | 99.2 | – | – | – | – | – | – | – | – | – | – | –
4 | COc1cc(C=C2C(C)=NN(c3cccc(Cl)c3)C23SCC(=O)N3c2nc3ccccc3s2)ccc1O (configuration not stated) | 58.1 | > 91.5 | 57.9 | > 100 | 30.7 | 32.4 | 41.5 | > 100 | > 100 | – | – | – | – | – | – | – | – | – | – | –
5 | CCN(CC)CC(C)Nc1ccc([N+](=O)[O-])c2sc3ccccc3c(=O)c12 (configuration not stated) | > 100 | – | 18.5 | 8.33 | – | 13.4 | 3.91 | – | 54.2 | 2.52 | 2.71 | 2.15 | 2.72 | 1.45 | 1.91 | – | – | – | – | –
6 | O=C(CCCCCCC(=O)Nc1ccc(N(CCCl)CCCl)cc1)NO | > 100 | – | 3.82 | 12 | > 100 | > 100 | 2.03 | – | – | 3.7 | 1.08 | 1.87 | 5.66 | 0.474 | – | 3.02 | – | – | – | –
7 | ONc1ncnc2nc[nH]c12 | – | > 100 | > 100 | – | > 100 | – | > 100 | – | > 100 | – | – | – | – | – | – | – | > 100 | > 100 | > 100 | –
8 | Cc1nc(N)nc(N)c1-c1ccc(Cl)c(Cl)c1 | > 100 | > 100 | > 100 | > 100 | > 100 | 58 | 34.8 | > 100 | > 51.9 | – | – | – | – | – | – | – | > 100 | > 100 | > 100 | > 100
9 | O=S(=O)(O)c1ccc2cccc(N=Nc3c(O)ccc4ccccc34)c2c1 | > 100 | > 100 | > 100 | > 100 | – | > 100 | > 100 | > 100 | > 100 | – | – | – | – | – | – | – | – | – | – | –
10 | Cc1cccc2nc3c(C(=O)NCCN(C)C)cccc3cc12 | – | – | 5.09 | – | 4.19 | – | – | – | – | – | – | – | – | – | – | – | 4.98 | 3.37 | 3.57 | 6.64
11 | CC1SC(c2ccccc2)N(CCc2cccs2)C1=O (configuration not stated) | 15.7 | – | 16.1 | 16.7 | 8.07 | 38.1 | 8.76 | – | 26 | 2.68 | 3.56 | 3.63 | 4.52 | 1.89 | 4.05 | 2.44 | – | – | – | –
12 | O=C(N/N=C(/c1ccccc1)C(F)(F)F)c1ccncc1 | > 100 | – | – | > 100 | > 100 | > 100 | > 100 | > 100 | > 100 | – | – | – | – | – | – | – | – | – | – | –
